US8680137B2, “Agents and methods for treating ischemic and other diseases” (Nono Inc., priority 2009, dated 2014)
Entries after “also recorded” stand apart in the source; their conditions may differ.

What was measured:
H9c2 cells = assay: OGD-induced cell death in H9c2 cardiomyocytes, PI uptake; assay type: cell-based, rat; settings: for resilience to OGD: 0.05-5.0 μM; for protection against OGD-induced death, pre-treatment: pre-treatment before OGD
Description: The rat cardiomyoblast cell line H9c2 was obtained from the American Type Culture Collection (CRL-1446) and cultured in Dulbecco's Modified Eagle Medium supplemented with 10% (v/v) heat-inactivated fetal bovine serum and 1% antibiotic-antimycotic. Cells were grown in an atmosphere of […]/5% CO2 in a humidified incubator.
H9c2 cells were made anoxic by replacing the medium with de-oxygenated Ischemic buffer (in mM: 1.13 CaCl2, 5 KCl, 0.3 KH2PO4, 0.5 MgCl2, 0.4 MgSO4, 128 NaCl, 10 HEPES) and by transferring them to an anaerobic chamber (5% CO2, 10% H2, 85% N2) for 6 hrs or 16 hrs at 37° C. OGD was terminated by washing the cells with oxygenated glucose-containing Control buffer (in mM: 1.13 CaCl2, 5 KCl, 0.3 KH2PO4, 0.5 MgCl2, 0.4 MgSO4, 128 NaCl, 10 HEPES 10 Glucose). Cultures were maintained for another 2 hrs at 37° C. in a humidified 5% CO2 atmosphere. Normoxic cells were maintained in Control buffer for the duration of the experiment.
Cell death was determined by fluorescence measurements of PI (5 μg/ml) using a multiwell plate fluorescence scanner. The fraction of dead cells in each culture was calculated as: fraction dead=(Ft−F0)/Fmax where Ft=PI fluorescence at 2 hrs post-OGD, F0=initial PI fluorescence immediately after the OGD treatment, and Fmax=PI fluorescence of the same cultures following 20 mins incubation in 1% TritonX-100.
H9c2 cells were cultured and subjected to OGD as described supra. FIG. 71 panels A and B show the results of exposure to M21 or M5 for 24 hours following 6 hours of OGD. FIG. 71 panels C and D show the results of H9c2cells were treated with either 1 mM Mg^2+, 5 μM M6, M11 (acute treatment) during the anoxic and recovery periods, or 1 μM nifedipine. Results are presented as mean±SEM (n=4).

retinal explants = assay: OGD in cultured ex vivo retinal explants; assay type: cell-based, rat; settings: 1 hr OGD
Description: The ability of TRPM7 inhibitors to protect other types of cell cultures following exposure to anoxia, including non-neuronal cell cultures, has also been tested. In general, cultures of growing cells are exposed to a 1-6 hour period of anoxia, followed by addition of a TRPM7 at a range of concentrations upon removal from anoxic conditions. […] This implies that TRPM7 inhibitors may be useful both as a treatment for anoxic damage to patients presenting symptoms of a disorder associated with anoxic damage, or as a preventative measure. Such preventative measures can be chronic, such as treatment to protect against damage from heart attacks or strokes, or acute, to be given prior to or during surgical procedures, which may include but not be limited to procedures that involve endovascular invasion and have the possibility of dislodging material that may block blood flow through arteries. Other types of preventative measures can include the reduction of anoxic damage associated with cardiovascular issues (heart attack, myocardial infarction, acute ischemic attacks, atrial fibrillation, etc), brain disorders (stroke, neurotrauma, etc), diabetic disorders (blindness, deafness, neuropathy), retinal/eye disorders (glaucoma, macular degeneration, blindness), aural disorders (deafness, progressive deafness, hearing loss), muscle disorders (weakness, myodegenerative disease, disorders associated with mitochondrial depletion), and organ disorders (kidney, lung, liver disorders associated with ischemia or anoxic damage).
Acute and chronic retinal ischemia are major causes of blindness. Retinal damage from glaucoma, also termed “slow excitotoxicity” afflicts millions of people each year and is the second leading cause of blindness worldwide (after cataracts). Diabetic retinopathy is also very common, afflicting about 40% of diabetics and, while less commonly producing complete blindness, is a leading cause of visual impairment. The retina is an extension of the CNS, and was the first organ in which excitotoxicity was described. […]

[1] = tested on: primary cultured mouse cortical cells; assay: OGD-induced anoxic death in murine primary neuronal cell cultures, PI fluorescence; assay type: cell-based; settings: 1 to 3 hours OGD, with or without MCN, applied prior to or following OGD
Description: TRPM7 inhibitors were tested for their ability to reduce anoxic death in murine primary neuronal cell cultures subjected to 1 to 3 hours of OGD. This assay was generally performed as described by Aarts et al (2003). In brief, mixed cortical cultures enriched with neurons (85%) were prepared and used for experiments after 12-14 days in vitro. The cultures were transferred to an anaerobic chamber containing 5% CO2, 10% H and 85% N2. Cultures were washed 3× with 500 μl deoxygenated glucose free bicarbonate solution and maintained anoxic for the appropriate duration at 37° C. OGD was terminated by washing the cultures with oxygenated glucose-containing bicarbonate solution, and the cultures were further maintained 1-24 hours in a humidified 5% CO2 atmosphere. Cell death wash generally measured by fluorescence measurement of PI (50 ug/ml) in a multiwall plate reader (CytoFluor II, Perseptive Biosystems).

[2] = tested on: Weri retinoblastoma cells; assay: Cancer cell proliferation, Weri; assay type: cell-based; settings: >20% inhibition at 48-96 hours, MTT, SRB, luminescence or BrDU
Description: To determine the breadth of efficacy in cancers, we examined the efficacy of a range of TRPM7 inhibitors for their ability to inhibit cell proliferation in cancer cell lines. Representative figures are included as examples.
Cells (Table 1) were grown to 70% confluency, trypsinized, counted, and seeded in 96-well flat-bottom plates at a final concentration of 2.5×10^3-5.0×10^3 cells/well in growth media containing 5% FBS (Day 0). Other well sizes and cell densities were used successfully as well. Cells were allowed to incubate in growth media for 24 hours to allow for maximum adhesion. Treatment with the test agent began on Day 1 and continued for 72 hours either with or without retreatment. At the 72 hour time point, viable cell numbers are quantified by the CellTiter-Glo® cell viability assay as described above, or using standard MTT, SRB or BrDU assays. Experiments were repeated at least twice with the same concentrations to determine growth inhibitory activity.
Data Collection—For the cell proliferation studies, data from each experiment was collected and expressed as % Cell Growth using the following calculation: % Cell Growth=(ftest/fvehicle)×100 Where ftest is the luminescent signal of the tested sample, and fvehicle is the luminescence of the vehicle in which the drug is dissolved (or appropriate measure for the other viability/proliferation measures). Dose response graphs and IC50 values were generated using standard software using the following variable slope equation: […]

TRPM7 = TRPM7 (Mus musculus, UniProt Q923J1); assay: Whole-cell patch clamp recording of TRPM7 currents in HEK293 cells expressing TRPM7; settings: for TRPM7 currents, applied intracellularly: in intracellular recording fluid, final concentration 2 mM, 10-20 minutes; for TRPM7 currents, extracellular application: tested at 0.3, 1, 3, 10 and 30 μM
TRPM7, sequence (Q923J1 whole entry): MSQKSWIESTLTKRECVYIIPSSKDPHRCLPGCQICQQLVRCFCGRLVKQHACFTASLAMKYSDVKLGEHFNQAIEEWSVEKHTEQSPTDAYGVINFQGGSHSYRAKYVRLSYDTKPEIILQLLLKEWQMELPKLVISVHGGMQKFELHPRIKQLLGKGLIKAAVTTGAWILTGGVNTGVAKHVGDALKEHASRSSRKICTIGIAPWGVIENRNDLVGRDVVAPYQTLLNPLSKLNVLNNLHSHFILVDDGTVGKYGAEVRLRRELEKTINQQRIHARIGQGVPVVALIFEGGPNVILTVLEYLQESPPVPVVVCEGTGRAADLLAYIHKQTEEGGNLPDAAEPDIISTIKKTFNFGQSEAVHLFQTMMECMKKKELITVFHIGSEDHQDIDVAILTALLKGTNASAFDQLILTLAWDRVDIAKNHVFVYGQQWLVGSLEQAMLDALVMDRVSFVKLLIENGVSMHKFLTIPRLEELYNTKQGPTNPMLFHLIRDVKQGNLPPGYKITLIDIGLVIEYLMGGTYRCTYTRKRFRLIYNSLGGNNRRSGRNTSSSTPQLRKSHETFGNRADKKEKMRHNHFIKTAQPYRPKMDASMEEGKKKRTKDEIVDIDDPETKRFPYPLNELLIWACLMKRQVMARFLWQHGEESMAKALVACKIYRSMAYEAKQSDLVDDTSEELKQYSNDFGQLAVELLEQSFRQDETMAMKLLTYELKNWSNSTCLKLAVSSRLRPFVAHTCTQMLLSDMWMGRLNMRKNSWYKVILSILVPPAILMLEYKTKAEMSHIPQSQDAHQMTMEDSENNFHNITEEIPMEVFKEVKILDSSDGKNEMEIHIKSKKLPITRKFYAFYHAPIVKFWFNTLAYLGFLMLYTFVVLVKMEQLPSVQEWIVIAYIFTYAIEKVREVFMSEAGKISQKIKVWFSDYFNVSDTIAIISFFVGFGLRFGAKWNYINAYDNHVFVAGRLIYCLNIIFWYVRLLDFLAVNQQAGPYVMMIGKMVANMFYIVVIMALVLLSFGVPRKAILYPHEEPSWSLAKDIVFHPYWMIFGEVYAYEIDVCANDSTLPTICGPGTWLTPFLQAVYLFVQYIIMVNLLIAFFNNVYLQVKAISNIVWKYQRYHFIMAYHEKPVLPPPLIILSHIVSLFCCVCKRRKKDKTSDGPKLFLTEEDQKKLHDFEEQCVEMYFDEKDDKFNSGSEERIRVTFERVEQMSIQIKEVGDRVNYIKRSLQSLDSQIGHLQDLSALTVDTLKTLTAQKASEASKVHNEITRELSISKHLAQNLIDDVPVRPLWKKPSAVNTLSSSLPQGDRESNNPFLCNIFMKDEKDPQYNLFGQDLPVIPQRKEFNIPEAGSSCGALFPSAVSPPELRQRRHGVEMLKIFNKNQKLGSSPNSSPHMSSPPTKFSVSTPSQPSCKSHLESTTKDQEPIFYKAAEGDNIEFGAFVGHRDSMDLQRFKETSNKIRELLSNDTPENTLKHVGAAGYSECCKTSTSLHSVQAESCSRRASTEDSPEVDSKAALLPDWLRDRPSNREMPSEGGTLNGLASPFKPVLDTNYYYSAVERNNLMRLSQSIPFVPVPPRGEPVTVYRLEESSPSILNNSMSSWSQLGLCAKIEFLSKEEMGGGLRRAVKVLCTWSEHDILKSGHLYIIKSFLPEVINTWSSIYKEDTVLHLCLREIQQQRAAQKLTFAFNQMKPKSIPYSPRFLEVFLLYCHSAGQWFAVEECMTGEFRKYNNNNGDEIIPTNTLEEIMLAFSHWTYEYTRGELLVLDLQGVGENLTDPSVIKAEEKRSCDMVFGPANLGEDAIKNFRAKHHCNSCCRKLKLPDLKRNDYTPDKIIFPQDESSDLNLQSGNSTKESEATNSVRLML
Description: Whole-cell patch clamp recordings were used essentially as described to test the TRPM7 inhibitors in HEK293 cells, H9c2 cardiomyocytes and cultured neurons. Each test compound was tested at 0.3, 1, 3, 10 and 30 μM, or as high as solubility permits.
To assess whether the M-compounds were inhibiting TRPM7 currents from an intracellular or extracellular location, M21 and M6 were dissolved in DMSO at 10 mM as stock, then diluted into intracellular recording fluid (ICF) to final concentration of 2 mM Immediately start recording of the TRPM7 like currents to RAMP change of membrane potentials after making the whole cell. Recording lasts for 10-20 minutes to compare the currents between control and test group.

## COc1cc2c(cc1OC)C(c1sc3ccccc3c1Cl)=NCC2 [Compound M6]
H9c2 cells
  resilience to OGD: enhanced their resilience to OGD
  protection against OGD-induced death, pre-treatment: comparable result to treatment after the onset of anoxia
Retinal explants
  survival / resilience following exposure to OGD: enhanced their resilience to OGD
[1]
  protection from anoxic death after OGD: protection of cultures from anoxic death is observed
[2]
  Demonstrated Reduction of Proliferation at or below 10 μM Inhibitor concentration: Weri retinoblastoma
TRPM7
  TRPM7 currents, applied intracellularly: do not affect TRPM7 currents
  TRPM7 currents, extracellular application: reduces current through the TRPM7 channel
TRPM7; listed as 6
  TRPM7 currents, extracellular application: inhibited ion currents through TRPM7

## O=C(Nc1ccc(F)cc1)C(Sc1ccc(Cl)cc1)c1ccccc1 (stereo not shown) [Compound M11]
H9c2 cells
  resilience to OGD: enhanced their resilience to OGD
  protection against OGD-induced death, pre-treatment: less robust rescue of the OGD-induced death
Retinal explants
  survival / resilience following exposure to OGD: promote survival
[1]
  protection from anoxic death after OGD: protection has been demonstrated
[2]
  Demonstrated Reduction of Proliferation at or below 10 μM Inhibitor concentration: Weri retinoblastoma
TRPM7
  TRPM7 currents, extracellular application: highest level of inhibition
TRPM7; listed as 11
  TRPM7 currents, extracellular application: inhibited ion currents through TRPM7

## Cc1c(Cc2ccc(Cl)c(Cl)c2)c(=O)oc2cc(O)ccc12 [Compound M21]
H9c2 cells
  resilience to OGD: enhanced their resilience to OGD
Retinal explants
  survival / resilience following exposure to OGD: promote survival; also recorded: enhanced their resilience to OGD
[1]
  protection from anoxic death after OGD: protection of cultures from anoxic death is observed
[2]
  Demonstrated Reduction of Proliferation at or below 10 μM Inhibitor concentration: Weri retinoblastoma
TRPM7
  TRPM7 currents, applied intracellularly: do not affect TRPM7 currents
  TRPM7 currents, extracellular application: highest level of inhibition
TRPM7; listed as 21
  TRPM7 currents, extracellular application: inhibited ion currents through TRPM7
